Reference: ChEMBL document CHEMBL1201862, “PubChem BioAssay data set” (2004)
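Five concentrations, 48 hours, 96-well plates. Abbreviation: GI50, concentration required for 50% inhibition of growth.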 The source made the active and inactive calls. Rule as the data show it: active = GI50 up to about 1.1 µM and inactive = higher.

Key:
Assay in all cases: NCI-60 cell line screen, 48 h
[1] = test system: UO-31
[2] = test system: TK-10
[3] = test system: HCC 2998
[4] = test system: MDA-N
[5] = test system: M14
[6] = test system: K562
[7] = test system: NCI-H23
[8] = test system: IGROV-1
[9] = test system: OVCAR-3
[10] = test system: U-251
[11] = test system: SR
[12] = test system: SF-539
[13] = test system: OVCAR-8
[14] = test system: SF-268
[15] = test system: LOX IMVI
[16] = test system: SNB-19
[17] = test system: UACC-62
[18] = test system: A549
[19] = test system: SNB-75

Measured: GI50

O=[N+]([O-])c1ccc(/C=N/n2c(S)nnc2CCc2nnc(S)n2/N=C/c2ccc([N+](=O)[O-])o2)o1
inactive: [1] 29.3 µM | [2] 84.1 µM | [3] 17.6 µM | [4] 13.8 µM | [5] 19.2 µM | [6] 28.6 µM | [7] 16.7 µM | [8] 44.3 µM | [9] 24.6 µM | [10] 20 µM | [11] 28.3 µM | [12] 41.5 µM | [13] 31.9 µM | [14] 22.3 µM | [15] 20.4 µM

O=C(CC(=O)n1nc(-c2ccccc2)c(/N=N/c2ccccc2C(=O)O)c1-c1ccccc1)Nc1ccc(Cl)cc1
inactive: [16] 21.7 µM | [1] 15.5 µM | [2] > 100 µM | [3] 34.4 µM | [4] 36.1 µM | [5] 55.8 µM | [17] 77.1 µM | [18] 34.1 µM | [6] 25.6 µM | [7] 20.5 µM | [8] 1.5 µM | [19] 27.9 µM | [10] 19.2 µM | [11] 11.6 µM | [13] 36.8 µM

O=C(O)/C=C\C(=O)Nn1c(Cc2ccc(Cl)cc2)n[nH]c1=O
inactive: [2] > 100 µM | [3] > 100 µM | [4] > 100 µM | [5] > 100 µM | [17] > 100 µM | [18] > 100 µM | [6] > 100 µM | [7] > 100 µM | [8] > 100 µM | [9] > 100 µM | [10] > 100 µM | [11] > 100 µM | [12] > 100 µM | [13] > 100 µM | [14] > 100 µM

N#Cc1[nH]c(=O)n(-c2ccc(Cl)cc2)c1N
inactive: [16] > 10 µM | [2] > 10 µM | [3] > 10 µM | [4] > 10 µM | [5] > 10 µM | [17] > 10 µM | [18] > 10 µM | [6] > 10 µM | [7] > 10 µM | [8] > 10 µM | [9] > 10 µM | [10] > 10 µM | [11] > 10 µM | [12] > 10 µM | [13] > 10 µM | [14] > 10 µM | [15] > 10 µM

Nc1c(Br)cc(-c2nc3ccccc3s2)cc1Br
inactive: [16] > 100 µM | [1] > 100 µM | [2] 6.85 µM | [3] 30.6 µM | [4] > 100 µM | [5] > 100 µM | [17] > 100 µM | [18] > 100 µM | [6] > 100 µM | [8] 5.12 µM | [9] > 100 µM | [19] > 100 µM | [10] > 100 µM | [11] > 100 µM | [12] > 100 µM | [13] > 100 µM | [14] > 100 µM

OC1(c2ccc3ccccc3c2)c2c(c3ccccc3c3ccccc23)C2=NCCN21 (stereo not given)
inactive: [16] 12.9 µM | [1] 6.92 µM | [2] 7.98 µM | [4] 1.96 µM | [5] 2.12 µM | [17] 13.5 µM | [18] 7.1 µM | [6] 3.81 µM | [7] 12.1 µM | [8] 3.85 µM | [9] 7.21 µM | [19] 3.11 µM | [10] 5.75 µM | [11] 3.08 µM | [12] 5.45 µM | [13] 4.44 µM | [14] 5.79 µM | [15] 2.28 µM

O=S1(=O)OCCOS(=O)(=O)C1Cc1nc2ccccc2[nH]1
inactive: [16] 37.2 µM | [1] 75.7 µM | [2] > 100 µM | [3] 54.7 µM | [4] 22.3 µM | [5] 44.8 µM | [18] 44.6 µM | [6] 34.5 µM | [7] 41 µM | [9] 45.8 µM | [10] 38.6 µM | [11] 28.6 µM | [13] 55.6 µM | [15] 14.5 µM

Clc1cc(N/N=C(/c2ccccc2)c2ncccn2)ncn1
inactive: [16] 60.7 µM | [1] 19.5 µM | [3] 70.3 µM | [4] 62.8 µM | [5] 29 µM | [17] 32.2 µM | [18] 26 µM | [6] 9.1 µM | [7] 21.4 µM | [8] 17.5 µM | [9] 20.2 µM | [19] 26.1 µM | [10] 31.8 µM | [11] 30.2 µM | [12] 21.9 µM | [13] 16.5 µM | [14] 34 µM

CC(=O)Oc1ccc2c(C)cc(=O)oc2c1OC(C)=O
inactive: [16] 41.3 µM | [1] 26.5 µM | [2] 24.2 µM | [4] > 100 µM | [5] 39.1 µM | [17] 49.1 µM | [18] 38.4 µM | [6] 47.8 µM | [7] 26.9 µM | [8] 22.3 µM | [9] 40.4 µM | [19] 27 µM | [10] 35.2 µM | [11] 17.3 µM | [12] > 100 µM | [13] 27 µM | [14] 25.3 µM | [15] 22.2 µM

CCc1ccc2oc(=O)ccc2c1
inactive: [16] > 100 µM | [1] 31.4 µM | [3] > 100 µM | [4] > 100 µM | [5] > 100 µM | [17] 35.7 µM | [18] > 100 µM | [6] > 100 µM | [7] > 100 µM | [8] > 100 µM | [9] > 100 µM | [19] > 100 µM | [10] > 100 µM | [11] > 100 µM | [12] > 100 µM | [13] > 100 µM | [14] > 100 µM | [15] > 100 µM

CCOC(=O)N/N=C/C1=NN(C(=O)OCC)[S+]([O-])C1C (stereo not given)
inactive: [16] > 100 µM | [1] > 100 µM | [2] > 100 µM | [3] > 100 µM | [4] > 100 µM | [5] > 100 µM | [17] > 100 µM | [18] > 100 µM | [6] > 100 µM | [7] > 100 µM | [8] > 100 µM | [9] > 100 µM | [19] > 100 µM | [10] > 100 µM | [11] > 100 µM | [12] > 100 µM | [13] > 100 µM | [14] > 100 µM

COc1cc(C(=O)N(C(=O)N2CCCCC2)c2ccccc2)cc(OC)c1OC
inactive: [16] > 100 µM | [1] > 100 µM | [3] > 100 µM | [4] > 100 µM | [5] > 100 µM | [17] > 100 µM | [18] > 100 µM | [6] > 100 µM | [7] > 100 µM | [8] > 100 µM | [9] > 100 µM | [19] > 100 µM | [10] > 100 µM | [11] > 100 µM | [12] > 100 µM | [13] > 100 µM | [15] > 100 µM

CC(C)c1ccc(/C(C(=O)O)=C(\O)C(=O)O)cc1
inactive: [16] > 100 µM | [1] > 100 µM | [2] > 100 µM | [4] > 100 µM | [5] > 100 µM | [17] > 100 µM | [18] > 100 µM | [6] > 100 µM | [7] > 100 µM | [8] > 100 µM | [9] > 100 µM | [19] > 100 µM | [10] > 100 µM | [11] > 100 µM | [12] > 100 µM | [13] > 100 µM | [14] > 100 µM | [15] > 100 µM

CCCC(=O)N/S(=N/S(=O)(=O)c1ccc(Cl)cc1)C(Cl)(Cl)Cl (stereo not given)
inactive: [16] > 100 µM | [1] > 100 µM | [2] > 100 µM | [3] > 100 µM | [4] > 100 µM | [5] > 100 µM | [17] > 100 µM | [18] > 100 µM | [6] > 100 µM | [7] > 100 µM | [8] > 100 µM | [9] > 100 µM | [10] 47.9 µM | [11] > 100 µM | [12] > 100 µM | [13] > 100 µM | [14] > 100 µM

Fc1ccc(C(=C2CCN(CCc3ccc4[nH]c(=S)[nH]c4c3)CC2)c2ccc(F)cc2)cc1
inactive: [16] 12.4 µM | [1] 2.67 µM | [2] 2.17 µM | [4] 1.96 µM | [5] 1.83 µM | [17] 5.32 µM | [18] 3.94 µM | [6] 3.1 µM | [7] 5.02 µM | [8] 3.99 µM | [9] 2.1 µM | [19] 2.92 µM | [10] 4.48 µM | [11] 2.7 µM | [12] 2.79 µM | [13] 2.74 µM | [14] 6.65 µM | [15] 4.9 µM

CC1(C)CCCCCC(O)C(O)CCC(C)(C)C1=O (stereo not given)
inactive: [16] > 100 µM | [1] > 100 µM | [2] > 100 µM | [4] > 100 µM | [5] > 100 µM | [17] > 100 µM | [18] > 100 µM | [6] > 100 µM | [7] > 100 µM | [8] > 100 µM | [9] > 100 µM | [19] > 100 µM | [10] > 100 µM | [11] > 100 µM | [12] > 100 µM | [13] > 100 µM | [14] > 100 µM | [15] > 100 µM
